In article PMC8113459, “Selective inhibition of cullin 3 neddylation through covalent targeting DCN1 protects mice from acetaminophen-induced liver toxicity” (Nature Communications, 2021):
Several values for one entry are separate records, joined by “and”; a condition that tells them apart may be missing. Equal values may be shown once.

Tested on: mice
Assay: 14-day toxicity study in mice
Format: in vivo, mouse
Settings: for whole animal: body weight of individual male mouse; for whole animal / AdrenalGlands / Brain / Epidimydes (paired) / Heart / KidneyL / KidneyR / Liver / Spleen / Testes (paired) / Thymus: in g (unit assumed); for AdrenalGlands / Brain / Epidimydes (paired) / Heart / KidneyL / KidneyR / Liver / Spleen / Testes (paired) / Thymus: organ weight of individual male mouse; for RelGonads / Relative KidneyL / RelativeHeart / RelativeKidneyR / RelativeLiver / RelativeSpleen / RelativeThymus / RelAdrenGl / RelBrain / RelEpid: organ weight relative to whole animal; for RelAdrenGl / RelBrain / RelEpid: in % (unit assumed)
Method: We evaluated DI-1859 for its potential toxicity in immunocompetent mice with daily, 50 mg/kg, intraperitoneal (IP) dosing for 14 consecutive days (Supplementary Table 3).
Supplementary Table 3. Overview Toxicity Study design DI-1859 study.
Group # # of Mice Drug Vol./ Test Article Treatment Diluent
(male/female) Route mouse dose Schedule

[1] = Clin Chem, individual male mouse, 50 mg/kg, 14 day, vehicle 20% PCP, listed as DI-1589, 50 mg/kg, in U/L (unit assumed)
[2] = Hemavet Values, individual male mouse, 50 mg/kg, 14 day, vehicle 20% PCP, listed as DI-1589, 50 mg/kg
[3] = 50 mg/kg, 14 day, vehicle 20% PCP
[4] = 50 mg/kg, 14 day, vehicle 20% PCP, listed as DI-1589, 50 mg/kg
[5] = mice, 50 mg/kg IP daily for 14 days
[6] = mice, 50 mg/kg IP qD(1-14), mean ± s.d., n=5
[7] = individual male mouse, 50 mg/kg, 14 day
[8] = individual male mouse, 50 mg/kg, 14 day, listed as DI-1589, 50 mg/kg
[9] = serum, mice, 50 mg/kg IP qD(1-14), mean ± s.d., n=5

For `C=C(CN(C)C)C(=O)NC[C@@H](NC(=O)[C@H](Cc1nc2ccc(C(C)C)cc2s1)NC(=O)CC)C1CCCCC1` [DI-1859], the “% wt change (average)” value (50 mg/kg IP qD(1-14), Treat Day 2) was -3.1%, the “% wt change (average)” value (50 mg/kg IP qD(1-14), Treat Day 3) was -3.0% and the “ave. wgt. (mouse body weight)” value (50 mg/kg IP qD(1-14), Treat Day 3, n=5) was 25.5 gm. The “% wt change (average)” value (50 mg/kg IP qD(1-14), Treat Day 4) was -3.1%, the “ave. wgt. (mouse body weight)” value (50 mg/kg IP qD(1-14), Treat Day 4, n=5) was 25.5 gm and the “% wt change (average)” value (50 mg/kg IP qD(1-14), Treat Day 5) was -0.9%. The “ave. wgt. (mouse body weight)” value (50 mg/kg IP qD(1-14), Treat Day 5, n=5) was 26.0 gm, the “% wt change (average)” value (50 mg/kg IP qD(1-14), Treat Day 6) was -1.3% and the “ave. wgt. (mouse body weight)” value (50 mg/kg IP qD(1-14), Treat Day 6, n=5) was 25.9 gm. For the same compound, the “% wt change (average)” value (50 mg/kg IP qD(1-14), Treat Day 7) was -1.6%, the “ave. wgt. (mouse body weight)” value (50 mg/kg IP qD(1-14), Treat Day 7, n=5) was 25.8 gm and the “% wt change (average)” value (50 mg/kg IP qD(1-14), Treat Day 8) was -2.1%. The “ave. wgt. (mouse body weight)” value (50 mg/kg IP qD(1-14), Treat Day 8, n=5) was 25.7 gm, the “% wt change (average)” value (50 mg/kg IP qD(1-14), Treat Day 9) was -1.9% and the “ave. wgt. (mouse body weight)” value (50 mg/kg IP qD(1-14), Treat Day 9, n=5) was 25.8 gm. The “% wt change (average)” value (50 mg/kg IP qD(1-14), Treat Day 10) was -0.8%, the “ave. wgt. (mouse body weight)” value (50 mg/kg IP qD(1-14), Treat Day 10, n=5) was 26.0 gm and the “% wt change (average)” value (50 mg/kg IP qD(1-14), Treat Day 11) was -3.6%. For the same compound, the “ave. wgt. (mouse body weight)” value (50 mg/kg IP qD(1-14), Treat Day 11, n=5) was 25.3 gm, the “% wt change (average)” value (50 mg/kg IP qD(1-14), Treat Day 12) was -2.5% and the “ave. wgt. (mouse body weight)” value (50 mg/kg IP qD(1-14), Treat Day 12, n=5) was 25.6 gm. The “% wt change (average)” value (50 mg/kg IP qD(1-14), Treat Day 13) was -2.7%, the “ave. wgt. (mouse body weight)” value (50 mg/kg IP qD(1-14), Treat Day 13, n=5) was 25.6 gm and the “% wt change (average)” value (50 mg/kg IP qD(1-14), Treat Day 14) was -4.9%. For the same compound, the “ave. wgt. (mouse body weight)” value (50 mg/kg IP qD(1-14), Treat Day 14, n=5) was 25.0 gm, the ALT [1] was 34 and 26 and 24 and 31 and the AST [1] was 57 and 46 and 61 and 55 and 35. The PDW (Hemavet Values, individual male mouse, 50 mg/kg, 14 day, vehicle 20% PCP) was 0%, the “BA#” value [2] was 0.01 K/uL and 0.09 K/uL and 0.05 K/uL and 0.13 K/uL and the BA% [2] was 0.11% and 0.74% and 1.42% and 0.22% and 1.34%. For the same compound, the “EO#” value [2] was 0.05 K/uL and 0.22 K/uL and 0.08 K/uL and 0.02 K/uL and 0.52 K/uL, the EO% [2] was 0.65% and 1.86% and 2.37% and 0.68% and 5.39% and the HB [2] was 12.9 g/dL and 12.5 g/dL and 10.2 g/dL and 11.4 g/dL and 11.5 g/dL. For the same compound, the HCT [2] was 37.7% and 38.6% and 31.1% and 36.4% and 34.1%, the “LY#” value [2] was 5.23 K/uL and 7.93 K/uL and 2.4 K/uL and 1.63 K/uL and 5.65 K/uL and the LY% [2] was 69.39% and 68.59% and 72.26% and 71.36% and 58.57%. The MCH [2] was 14.5 pg and 13.7 pg and 14.3 pg, the MCHC [2] was 34.2 g/dL and 32.4 g/dL and 32.8 g/dL and 31.3 g/dL and 33.7 g/dL and the MCV [2] was 42.5 fL and 42.4 fL and 41.9 fL and 43.7 fL. For the same compound, the “MO#” value [2] was 0.42 K/uL and 0.63 K/uL and 0.21 K/uL and 0.22 K/uL, the MO% [2] was 5.58% and 5.49% and 6.31% and 9.5% and 6.52% and the MPV [2] was 4.9 fL and 4.7 fL and 5.2 fL and 5.7 fL and 4.8 fL. For the same compound, the “NE#” value [2] was 1.83 K/uL and 2.69 K/uL and 0.59 K/uL and 0.42 K/uL and 2.72 K/uL, the NE% [2] was 24.26% and 23.31% and 17.63% and 18.24% and 28.19% and the PLT [2] was 900 K/uL and 866 K/uL and 228 K/uL and 177 K/uL and 757 K/uL. The RBC [2] was 8.88 M/uL and 9.11 M/uL and 7.43 M/uL and 8.33 M/uL and 8.03 M/uL, the RDW [2] was 17.1% and 16.5% and 17.2% and 17.7% and the WBC [2] was 7.54 K/uL and 11.56 K/uL and 3.32 K/uL and 2.28 K/uL and 9.64 K/uL. For the same compound, the whole animal [3] was 24.600, the whole animal [4] was 25.300 and 25.200 and 26.400 and 27.400 and the “alterations in hematologic parameters” value [5] was “no meaningful alterations”. The “changes in body weights or organ weights” value [5] was “no changes”, the tolerability [5] was “well tolerated” and the “Absolute organ weight, Adrenal glands (paired)” value [6] was 0.006 ± 0.002 g. For the same compound, the “Absolute organ weight, Brain” value [6] was 0.454 ± 0.009 g, the “Absolute organ weight, Epididymis (paired)” value [6] was 0.089 ± 0.011 g and the “Absolute organ weight, Heart” value [6] was 0.117 ± 0.009 g. For the same compound, the “Absolute organ weight, L kidney” value [6] was 0.182 ± 0.013 g, the “Absolute organ weight, Liver” value [6] was 1.596 ± 0.098 g and the “Absolute organ weight, R kidney” value [6] was 0.200 ± 0.007 g. The “Absolute organ weight, Spleen” value [6] was 0.073 ± 0.013 g, the “Absolute organ weight, Testes (paired)” value [6] was 0.222 ± 0.017 g and the “Absolute organ weight, Thymus” value [6] was 0.040 ± 0.027 g. The Body weights [6] was 25.78 ± 1.11 g, the Hematocrit [6] was 35.58 ± 3.02% and the Hemoglobin [6] was 11.70 ± 1.06 g/dL. For the same compound, the MCH [6] was 13.98 ± 0.39 pg, the MCHC [6] was 32.88 ± 1.13 g/dL and the MCV [6] was 42.60 ± 0.66 fL. For the same compound, the MPV [6] was 5.06 ± 0.40 fL, the Platelets [6] was 585.6 ± 354.1 10e3/uL and the RBC [6] was 8.36 ± 0.67 10e6/ul. The RDW [6] was 17.12 ± 0.43%, the “Relative organ weight, Adrenal glands (paired)” value [6] was 0.02 ± 0.01 % of body weight and the “Relative organ weight, Brain” value [6] was 1.76 ± 0.07 % of body weight. For the same compound, the “Relative organ weight, Epididymis (paired)” value [6] was 0.35 ± 0.05 % of body weight, the “Relative organ weight, Heart” value [6] was 0.45 ± 0.02 % of body weight and the “Relative organ weight, L kidney” value [6] was 0.71 ± 0.05 % of body weight. The “Relative organ weight, Liver” value [6] was 6.19 ± 0.19 % of body weight, the “Relative organ weight, R kidney” value [6] was 0.78 ± 0.04 % of body weight and the “Relative organ weight, Spleen” value [6] was 0.28 ± 0.04 % of body weight. For the same compound, the “Relative organ weight, Testes (paired)” value [6] was 0.86 ± 0.09 % of body weight, the “Relative organ weight, Thymus” value [6] was 0.16 ± 0.11 % of body weight and the WBC [6] was 6.868 ± 3.993 10e3/ul. The “Microscopic finding, Epididymis: Sperm granuloma” value (mice, 50 mg/kg IP, 14 days) was 0/10, the “Microscopic finding, Liver: Necrosis, random” value (mice, 50 mg/kg IP, 14 days) was 0/5 and the “Microscopic findings, Adrenal Glands” value (mice, 50 mg/kg IP, 14 days) was 0/8. The “Microscopic findings, Cecum” value (mice, 50 mg/kg IP, 14 days) was 0/5, the “Microscopic findings, Colon” value (mice, 50 mg/kg IP, 14 days) was 0/5 and the “Microscopic findings, Heart” value (mice, 50 mg/kg IP, 14 days) was 0/5. The “Microscopic findings, Kidneys” value (mice, 50 mg/kg IP, 14 days) was 0/10, the “Microscopic findings, Lung” value (mice, 50 mg/kg IP, 14 days) was 0/5 and the “Microscopic findings, Mesenteric lymph node” value (mice, 50 mg/kg IP, 14 days) was 0/5. The “Microscopic findings, Pancreas” value (mice, 50 mg/kg IP, 14 days) was 0/5, the “Microscopic findings, Small intestine” value (mice, 50 mg/kg IP, 14 days) was 0/5 and the “Microscopic findings, Spleen” value (mice, 50 mg/kg IP, 14 days) was 0/5. For the same compound, the “Microscopic findings, Sternal bone marrow” value (mice, 50 mg/kg IP, 14 days) was 0/5, the “Microscopic findings, Stomach” value (mice, 50 mg/kg IP, 14 days) was 0/5 and the “Microscopic findings, Thymus” value (mice, 50 mg/kg IP, 14 days) was 0/5. The “Microscopic findings, Urinary bladder” value (mice, 50 mg/kg IP, 14 days) was 0/5, the AdrenalGlands [3] was 0.007 and the Brain [3] was 0.448. The “Epidimydes (paired)” value [3] was 0.106, the Heart [3] was 0.104 and the KidneyL [3] was 0.187. It also gave a KidneyR [3] of 0.192, a Liver [3] of 1.500 and a Spleen [3] of 0.075. The “Testes (paired)” value [3] was 0.230, the Thymus [3] was 0.025 and the AdrenalGlands [4] was 0.005 and 0.010. The Brain [4] was 0.465 and 0.450 and 0.445 and 0.462, the “Epidimydes (paired)” value [4] was 0.091 and 0.076 and 0.086 and 0.084 and the Heart [4] was 0.120 and 0.111 and 0.127 and 0.122. The KidneyL [4] was 0.188 and 0.165 and 0.173 and 0.199, the KidneyR [4] was 0.201 and 0.208 and 0.193 and 0.207 and the Liver [4] was 1.540 and 1.722 and 1.680. The Spleen [4] was 0.063 and 0.074 and 0.062 and 0.093, the “Testes (paired)” value [4] was 0.224 and 0.227 and 0.237 and 0.193 and the Thymus [4] was 0.088 and 0.032 and 0.029 and 0.028. The RelGonads [7] was 0.935, the “Relative KidneyL” value [7] was 0.760 and the RelativeHeart [7] was 0.423. It also gave a RelativeKidneyR [7] of 0.780, a RelativeLiver [7] of 6.098 and a RelativeSpleen [7] of 0.305. It also gave a RelativeThymus [7] of 0.102, a RelAdrenGl [7] of 0.028 and a RelBrain [7] of 1.821. The RelEpid [7] was 0.431, the RelGonads [8] was 0.885 and 0.901 and 0.898 and 0.704 and the “Relative KidneyL” value [8] was 0.743 and 0.655 and 0.726. For the same compound, the RelativeHeart [8] was 0.474 and 0.440 and 0.481 and 0.445, the RelativeKidneyR [8] was 0.794 and 0.825 and 0.731 and 0.755 and the RelativeLiver [8] was 6.087 and 6.111 and 6.523 and 6.131. For the same compound, the RelativeSpleen [8] was 0.249 and 0.294 and 0.235 and 0.339, the RelativeThymus [8] was 0.348 and 0.127 and 0.110 and the RelAdrenGl [8] was 0.020 and 0.019 and 0.037. For the same compound, the RelBrain [8] was 1.838 and 1.786 and 1.686, the RelEpid [8] was 0.360 and 0.302 and 0.326 and 0.307 and the ALT [9] was 28.2 ± 4.1 U/L. It also gave an AST [9] of 50.8 ± 10.4 U/L.
